From PubChem BioAssay AID1963826 (Molecular Pharmacology Branch, DTP, NCI, 2024)
Values joined by “and” are separate entries in the source; they are usually repeats but may differ in a detail not shown here. Identical values can stand only once.

Tested on: 926638-142-R-J1-PDC complex spheroid viability
Assay: Anticancer human tumor 926638-142-R-J1-PDC patient-derived endometrial carcinoma cell line growth inhibition [POLQ]
Conditions: for viability, T/C: stronger effect = lower value
Description: Multicellular complex tumor spheroid response to Polymerase (POL) inhibitors (novobiocin, ART-558, RP6685) in combination with a variety of drugs and investigational agents in selected tumor cell lines
The POL inhibitors (novobiocin, ART-558, and RP6685) were evaluated both individually and in combination with standard of care and investigational anticancer small molecules within a complex spheroid model of solid tumors. . Complex spheroids include a stromal component modeled by human endothelial cells (HUVEC) and fibroblasts modeled by human mesenchymal stem cells (MSCs). The concentration ranges selected for each drug and investigational agent were based upon clinically achievable concentrations if the clinical Cmax of the agent was known.
Compounds. The drugs and investigational agents: novobiocin (NSC847541), ART-558 (NSC835418), RP-6685 (NSC848927), peposertib (NSC802822), ceralasertib (NSC780249), elimusertib (NSC800525), camonsertib (NSC841442), AZD-1390 (NSC803789), olaparib (NSC753686), talazoparib (NSC767125), rucaparib (NSC756644), sotorasib (NSC818433), MRTX-1133 (NSC836407), SN-38 (NSC673596), topotecan (NSC609699), epotoside (NSC141540), doxorubicin (NSC123127), gemcitabine (NSC613327), 5-fluorouracil (NSC19893), paclitaxel (NSC125973), vemurafenib (NSC761431), MSA-2 (NSC828583), SN-011 (NSC837082), adavosertib (NSC754352), prexasertib (NSC758257), carboplatin (NSC241240) and oxaliplatin (NSC266046), were obtained from the National Cancer Institute (NCI) Developmental Therapeutics Program Chemical Repository (21). The FDA-approved anticancer drug set is available from the Developmental Therapeutics Program at https://dtp.cancer.gov/organization/dscb/obtaining/. […] The stock solutions were prepared in dimethyl sulfoxide (DMSO, Sigma-Aldrich, St. Louis, MO, cat. D2650), except for the platinum compounds which were prepared in saline (Quality Biological, Gaithersburg, MD, cat. 114-055-101), at 800-fold the tested concentration and stored at -70 degrees C prior to their use. All drugs and investigational agents were tested over a range starting from a high concentration at or near the clinical Cmax and decreasing in half-log increments. If the clinical Cmax for an agent had not been determined, the highest concentration tested was 10 microM, except for SN-38, which was tested at a high concentration of 1 microM.
Cell Culture. All cells were maintained in an incubator at 37 degrees C and 5% CO2 with 95% humidity. The PDC lines were cultured according to standard operating procedures established by the NCI PDMR (https://pdmr.cancer.gov). Table 3 of the manuscript, lists the cell lines along with the number of the three cell types plated to form the mct-spheroids and media for tumor cell growth. After thawing, all PDC lines, except 997537-175-T-J1-PDC and 415267-285-R-J2-PDC, were cultured in Matrigel-coated flasks prepared with a working solution of 1X Ham's F-12 nutrient mix, without supplementation (Thermo Fisher Scientific, cat. 11765054), 100 U/mL penicillin-streptomycin (Thermo Fisher Scientific, cat. 15140122), and 2.5% Matrigel (Corning Inc., Corning, NY, cat. 354248) for the first three passages. The two PDC lines 997537-175-T-J1-PDC and 415267-285-R-J2-PDC were cultured on uncoated flasks. The 857933-349-R-J2-PDC line was cultured in 6C/Colon 1B media containing advanced DMEM/F-12 (Thermo Fisher Scientific, cat. 12634028), 10 mM HEPES (Thermo Fisher Scientific, cat. 15630080), 1X GlutaMAX supplement (Thermo Fisher Scientific, cat. 35050061), 0.1 mg/mL primocin (InvivoGen, San Diego, CA, cat. ant-pm-2), 10% defined fetal bovine serum, heat inactivated (HyClone Laboratories Inc., Logan, UT, cat. SH30070.03HI), 50% L-WRN conditioned media (ATCC, cat. CRL-3276), 1.25 mM N-Acetyl-L-cysteine (Sigma-Aldrich, cat. A9165), 10 mM nicotinamide (Sigma-Aldrich, cat. N0636), 1X B-27 supplement (Thermo Fisher Scientific, cat. 17504044), 1X N-2 supplement (Thermo Fisher Scientific, cat. […]
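Note: spheroids exposed to drugs for one week before readout.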
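Throughout, for viability, T/C: percent viability relative to DMSO vehicle control wells set as 100%.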

O=C(Nc1ccc(O)c(NS(=O)(=O)c2ccc(F)cc2)c1)c1ccc(-c2ccccc2)cc1 + Nc1ccc(C#CCN(C(=O)Cc2ncc(C(F)(F)F)cc2C(F)(F)F)c2ccc(F)cc2)nn1
IC50 (curve of first compound, second compound 0.0316 µM): > 10 µM
IC50 (curve of first compound, second compound 0.1 µM): > 10 µM
IC50 (curve of first compound, second compound 0.316 µM): > 10 µM
IC50 (curve of first compound, second compound 1 µM): > 10 µM
IC50 (curve of first compound, second compound 3.16 µM): > 10 µM
IC50 (curve of first compound, second compound 10 µM): > 10 µM
viability, T/C (second compound 0.0316 µM, first compound 0.0316 µM): 106%
viability, T/C (second compound 0.0316 µM, first compound 0.1 µM): 101%
viability, T/C (second compound 0.0316 µM, first compound 0.316 µM): 80.8%
viability, T/C (second compound 0.0316 µM, first compound 1 µM): 110%
viability, T/C (second compound 0.0316 µM, first compound 3.16 µM): 95.7%
viability, T/C (second compound 0.0316 µM, first compound 10 µM): 82.8%
viability, T/C (second compound 0.1 µM, first compound 0.0316 µM): 105%
viability, T/C (second compound 0.1 µM, first compound 0.1 µM): 103%
viability, T/C (second compound 0.1 µM, first compound 0.316 µM): 107%
viability, T/C (second compound 0.1 µM, first compound 1 µM): 108%
viability, T/C (second compound 0.1 µM, first compound 3.16 µM): 96.4%
viability, T/C (second compound 0.1 µM, first compound 10 µM): 81.3%
viability, T/C (second compound 0.316 µM, first compound 0.0316 µM): 114%
viability, T/C (second compound 0.316 µM, first compound 0.1 µM): 102%
viability, T/C (second compound 0.316 µM, first compound 0.316 µM): 99.5%
viability, T/C (second compound 0.316 µM, first compound 1 µM): 116%
viability, T/C (second compound 0.316 µM, first compound 3.16 µM): 109%
viability, T/C (second compound 0.316 µM, first compound 10 µM): 81.1%
viability, T/C (second compound 1 µM, first compound 0.0316 µM): 98%
viability, T/C (second compound 1 µM, first compound 0.1 µM): 106%
viability, T/C (second compound 1 µM, first compound 0.316 µM): 103%
viability, T/C (second compound 1 µM, first compound 1 µM): 105%
viability, T/C (second compound 1 µM, first compound 3.16 µM): 105%
viability, T/C (second compound 1 µM, first compound 10 µM): 71.9%
viability, T/C (second compound 3.16 µM, first compound 0.0316 µM): 100%
viability, T/C (second compound 3.16 µM, first compound 0.1 µM): 82.4%
viability, T/C (second compound 3.16 µM, first compound 0.316 µM): 96.1%
viability, T/C (second compound 3.16 µM, first compound 1 µM): 100%
viability, T/C (second compound 3.16 µM, first compound 3.16 µM): 106%
viability, T/C (second compound 3.16 µM, first compound 10 µM): 67.6%
viability, T/C (second compound 10 µM, first compound 0.0316 µM): 92.2%
viability, T/C (second compound 10 µM, first compound 0.1 µM): 92.8%
viability, T/C (second compound 10 µM, first compound 0.316 µM): 89.5%
viability, T/C (second compound 10 µM, first compound 1 µM): 104%
viability, T/C (second compound 10 µM, first compound 3.16 µM): 104%
viability, T/C (second compound 10 µM, first compound 10 µM): 72.5%

COc1cc(C2c3cc4c(cc3C(OC3OC5COC(C)OC5C(O)C3O)C3COC(=O)C23)OCO4)cc(OC)c1O (stereo not given)
viability, T/C (compound 0.0316 µM): 97.6% and 99% and 86.2%
viability, T/C (compound 0.1 µM): 79.6% (2×) and 77.2%
viability, T/C (compound 0.316 µM): 63.6% and 68.3% and 88.5%
viability, T/C (compound 1 µM): 67.9% and 82.5% and 80.7%
viability, T/C (compound 3.16 µM): 66.8% and 64.7% and 65.7%
viability, T/C (compound 10 µM): 65.4% and 55.2% and 55.3%
IC50 (curve of compound): > 10 µM

O=c1[nH]cc(F)c(=O)[nH]1
viability, T/C (compound 0.0316 µM): 109% and 99.3% and 86.3%
viability, T/C (compound 0.1 µM): 101% and 89.2% and 108%
viability, T/C (compound 0.316 µM): 92% (2×) and 87.6%
viability, T/C (compound 1 µM): 89% and 95.6% and 93%
viability, T/C (compound 3.16 µM): 84.3% and 86% and 78.8%
viability, T/C (compound 10 µM): 75% and 88% and 80%
IC50 (curve of compound): > 10 µM

COc1cc2cc(C(=O)CCC(=O)O)sc2cc1OC
viability, T/C (compound 0.0316 µM): 90.1% and 110% and 93.5%
viability, T/C (compound 0.1 µM): 89.8% and 92.9% and 113%
viability, T/C (compound 0.316 µM): 98.2% and 105% and 100%
viability, T/C (compound 1 µM): 101% and 109% and 93.2%
viability, T/C (compound 3.16 µM): 99.7% and 107% and 75.5%
viability, T/C (compound 10 µM): 90.7% and 92.1% and 93.5%
IC50 (curve of compound): > 10 µM

CC1COCCN1c1cc(-c2ccnn2C)c2ccnc(-c3ccn[nH]3)c2n1 (stereo not given)
viability, T/C (compound 0.0316 µM): 83.5% and 103% and 85.4%
viability, T/C (compound 0.1 µM): 79.7% and 81.4% and 63.6%
viability, T/C (compound 0.316 µM): 55.4% and 57.6% and 51.2%
viability, T/C (compound 1 µM): 31.7% and 36.2% and 33%
viability, T/C (compound 3.16 µM): 13.4% and 11.8% and 14.9%
viability, T/C (compound 10 µM): 6.95% and 8.69% and 9.29%
IC50 (curve of compound): 0.435 µM and 0.45 µM and 0.287 µM
